According to ChEMBL document CHEMBL2029247, “Synthesis and structure-activity relationship of aminopyridines with substituted benzoxazoles as c-Met kinase inhibitors” (Bioorg Med Chem Lett, 2012):

Key:
[1] = target: Hepatocyte growth factor receptor (Homo sapiens, UniProt P08581); assay: Inhibition of recombinant c-Met by time resolved-fluorescence resonance energy transfer analysis
cells = details: Homo sapiens, Hs746T, 72 h
Description: Cytotoxicity against human Hs 746T cells after 72 hrs by WST-8 assay

[2] = target: T1, Receptor-type tyrosine-protein kinase FLT3 (Homo sapiens, UniProt P36888); assay: Inhibition of recombinant FLT3 by time resolved-fluorescence resonance energy transfer analysis
T1 sequence (P36888 whole entry): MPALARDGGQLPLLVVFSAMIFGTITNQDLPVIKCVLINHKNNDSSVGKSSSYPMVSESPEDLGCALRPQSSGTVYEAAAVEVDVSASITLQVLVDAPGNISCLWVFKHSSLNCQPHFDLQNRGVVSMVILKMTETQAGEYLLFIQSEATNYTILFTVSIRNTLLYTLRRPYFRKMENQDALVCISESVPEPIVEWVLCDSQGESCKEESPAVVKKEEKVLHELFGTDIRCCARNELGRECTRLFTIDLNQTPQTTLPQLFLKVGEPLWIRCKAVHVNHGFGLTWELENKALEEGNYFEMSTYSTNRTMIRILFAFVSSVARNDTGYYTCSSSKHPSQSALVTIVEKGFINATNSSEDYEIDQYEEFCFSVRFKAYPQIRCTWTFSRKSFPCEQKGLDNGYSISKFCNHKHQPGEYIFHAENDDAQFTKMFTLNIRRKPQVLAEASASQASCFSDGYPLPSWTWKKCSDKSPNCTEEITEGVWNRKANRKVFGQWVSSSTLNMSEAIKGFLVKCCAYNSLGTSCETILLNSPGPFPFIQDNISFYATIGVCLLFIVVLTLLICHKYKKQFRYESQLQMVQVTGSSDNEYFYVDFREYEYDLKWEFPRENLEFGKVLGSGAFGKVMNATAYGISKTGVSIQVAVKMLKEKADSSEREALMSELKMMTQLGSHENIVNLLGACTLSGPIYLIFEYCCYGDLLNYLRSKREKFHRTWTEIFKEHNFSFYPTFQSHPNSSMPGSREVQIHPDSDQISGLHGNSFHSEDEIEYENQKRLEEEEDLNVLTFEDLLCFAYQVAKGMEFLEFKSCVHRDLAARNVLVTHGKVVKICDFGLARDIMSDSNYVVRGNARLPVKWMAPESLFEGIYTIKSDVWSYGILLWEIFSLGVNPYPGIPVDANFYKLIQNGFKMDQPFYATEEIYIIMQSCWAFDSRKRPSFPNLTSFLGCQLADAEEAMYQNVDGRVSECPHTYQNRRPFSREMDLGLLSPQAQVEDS

[3] = target: Receptor-type tyrosine-protein kinase FLT3 (Homo sapiens, UniProt P36888, D835Y); assay: Inhibition of FLT3 D835Y mutant
[4] = target: Macrophage-stimulating protein receptor (Homo sapiens, UniProt Q04912); assay: Inhibition of Ron
Aurora kinase A = target: T2, Aurora kinase A (Homo sapiens, UniProt O14965); assay: Inhibition of Aurora A
T2 sequence (O14965 whole entry): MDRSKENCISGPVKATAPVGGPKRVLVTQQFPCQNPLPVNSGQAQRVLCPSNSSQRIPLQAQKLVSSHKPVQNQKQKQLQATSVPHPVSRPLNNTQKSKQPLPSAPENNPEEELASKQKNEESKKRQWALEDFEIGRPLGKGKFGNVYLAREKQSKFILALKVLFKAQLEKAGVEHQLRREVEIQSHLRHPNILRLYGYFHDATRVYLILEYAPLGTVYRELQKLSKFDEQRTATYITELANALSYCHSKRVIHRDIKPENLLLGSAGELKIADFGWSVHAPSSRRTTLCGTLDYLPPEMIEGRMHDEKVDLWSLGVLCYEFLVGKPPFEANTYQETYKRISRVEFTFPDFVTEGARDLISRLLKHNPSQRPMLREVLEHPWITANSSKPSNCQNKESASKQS

IC50 [1] | SMILES | also measured
53 nM | Nc1ncc(-c2cnn(C3CCNCC3)c2)cc1-c1nc2cc(Cl)ccc2o1 | 
41 nM | Nc1ncc(-c2cnn(C3CCNCC3)c2)cc1-c1nc2cc(Cl)cc(F)c2o1 | 
800 nM | CC(=O)c1ccc2nc(-c3cc(-c4cnn(C5CCNCC5)c4)cnc3N)oc2c1 | 
130 nM | CC(O)c1ccc2nc(-c3cc(-c4cnn(C5CCNCC5)c4)cnc3N)oc2c1 (stereo not drawn) | 
28 nM | Nc1ncc(-c2cnn(C3CCNCC3)c2)cc1-c1nc2ccc(-c3cccnc3)cc2o1 | 
210 nM | Nc1ncc(-c2cnn(C3CCNCC3)c2)cc1-c1nc2ccc(-c3cc[nH]n3)cc2o1 | 
 | Nc1ncc(-c2cnn(C3CCNCC3)c2)cc1-c1nc2cccc(-c3ccccn3)c2o1 | IC50 (cells): 240 nM
77 nM | COc1ccc(-c2cccc3nc(-c4cc(-c5cnn(C6CCNCC6)c5)cnc4N)oc23)cc1 | 
130 nM | CC(C)Nc1cccc2nc(-c3cc(-c4cnn(C5CCNCC5)c4)cnc3N)oc12 | 
160 nM | CNc1ccc2oc(-c3cc(-c4cnn(C5CCNCC5)c4)cnc3N)nc2c1 | 
540 nM | CC(=O)Nc1ccc2oc(-c3cc(-c4cnn(C5CCNCC5)c4)cnc3N)nc2c1 [listing 1 of 2 here] | 
150 nM | CCCNc1ccc2nc(-c3cc(-c4cnn(C5CCNCC5)c4)cnc3N)oc2c1 | 
63 nM | Nc1ncc(-c2cnn(C3CCNCC3)c2)cc1-c1nc2ccc(Nc3ncccn3)cc2o1 | 
34 nM | Nc1ncc(-c2cnn(C3CCNCC3)c2)cc1-c1nc2ccc(Oc3ccncn3)cc2o1 | 
23 nM | Nc1ncc(-c2cnn(C3CCNCC3)c2)cc1-c1nc2ccc(Oc3ncccn3)cc2o1 | 
22 nM | Nc1ncc(-c2cnn(C3CCNCC3)c2)cc1-c1nc2cc(O)ccc2o1 | 
19 nM | Nc1ncc(-c2cnn(C3CCNCC3)c2)cc1-c1nc2ccc(O)cc2o1 | IC50 [2]: 4 nM; IC50 [3]: 0.3 nM; IC50 [4]: 14 nM; IC50 (Aurora kinase A): 90 nM; IC50 (cells): 450 nM
110 nM | Nc1ncc(-c2cnn(C3CCNCC3)c2)cc1-c1nc2cccc(O)c2o1 | 
 | Cc1cc2oc(-c3cc(-c4cnn(C5CCNCC5)c4)cnc3N)nc2cc1O | IC50 (cells): 12 nM
3 nM | Cc1cc2oc(-c3cc(-c4cnn(C5CCNCC5)c4)cnc3N)nc2c(C)c1O | 
 | CCc1cc2oc(-c3cc(-c4cnn(C5CCNCC5)c4)cnc3N)nc2cc1O | IC50 (cells): 22 nM

IC50 [1] | SMILES | also measured
180 nM | Cc1cc2nc(-c3cc(-c4cnn(C5CCNCC5)c4)cnc3N)oc2cc1O | 
0.2 nM | Cc1c(O)ccc2nc(-c3cc(-c4cnn(C5CCNCC5)c4)cnc3N)oc12 | IC50 [2]: 34 nM; IC50 (cells): 35 nM
4 nM | Nc1ncc(-c2cnn(C3CCNCC3)c2)cc1-c1nc2ccc(O)c(-c3cccnc3)c2o1 | 
 | Nc1ncc(-c2cnn(C3CCNCC3)c2)cc1-c1nc2ccc(O)c(-c3cnccn3)c2o1 | IC50 (cells): 180 nM
48 nM | Nc1ncc(-c2cnn(C3CCNCC3)c2)cc1-c1nc2ccc(O)c(-c3ccccc3)c2o1 | IC50 [2]: 14 nM; IC50 (cells): 10 nM
56 nM | Nc1ccc2oc(-c3cc(-c4cnn(C5CCNCC5)c4)cnc3N)nc2c1 | 
14 nM | Nc1ccc2nc(-c3cc(-c4cnn(C5CCNCC5)c4)cnc3N)oc2c1 | IC50 [2]: 3.6 nM; IC50 (cells): 3700 nM
130 nM | Nc1ncc(-c2cnn(C3CCNCC3)c2)cc1-c1nc2ccc(NC(=O)Nc3ccccc3)cc2o1 | 
88 nM | CS(=O)(=O)Nc1ccc2nc(-c3cc(-c4cnn(C5CCNCC5)c4)cnc3N)oc2c1 | 
67 nM | Nc1ncc(-c2cnn(C3CCNCC3)c2)cc1-c1nc2ccc(NS(=O)(=O)c3ccc(F)cc3)cc2o1 | 
410 nM | Nc1ncc(-c2cnn(C3CCNCC3)c2)cc1-c1nc2ccc(Nc3ccc(F)cc3)cc2o1 | 
45 nM | Cc1ccc(S(=O)(=O)NC(=O)Nc2ccc3nc(-c4cc(-c5cnn(C6CCNCC6)c5)cnc4N)oc3c2)cc1 | 
1700 nM | Cn1cc(-c2cnc(N)c(-c3nc4ccc(Cl)cc4o3)c2)cn1 | 
240 nM | CN1CCC(n2cc(-c3cnc(N)c(-c4nc5ccc(F)cc5o4)c3)cn2)CC1 | 
90 nM | Nc1ncc(-c2cnn(C3CCN(CCO)CC3)c2)cc1-c1nc2ccc(F)cc2o1 | 
220 nM | CC(=O)N1CCC(n2cc(-c3cnc(N)c(-c4nc5ccc(Cl)cc5o4)c3)cn2)CC1 | 
51 nM | CC(=O)N1CCC(n2cc(-c3cnc(N)c(-c4nc5cc(O)c(C)cc5o4)c3)cn2)CC1 | 
28 nM | CC(=O)N1CCC(n2cc(-c3cnc(N)c(-c4nc5c(C)c(O)c(C)cc5o4)c3)cn2)CC1 | 
53 nM | Nc1ncc(-c2cnn(CCO)c2)cc1-c1nc2cccc(-c3ccccn3)c2o1 | 
14 nM | Cn1cc(-c2cnc(N)c(-c3nc4cccc(-c5ccccn5)c4o3)c2)cn1 | 
540 nM | CC(=O)Nc1ccc2oc(-c3cc(-c4cnn(C5CCNCC5)c4)cnc3N)nc2c1 [listing 2 of 2 here] | 
